Patent US20130005696A1, “BUFADIENOLIDE DERIVATIVES, PREPARING PROCESS THEREOF, COMPOSITION COMPRISING THE SAME AND THE USE THEREOF” (priority 2011, published 2013)
Like-named read-outs stand apart in the source and are kept apart here.

Tests used:
[1] = test system: QGY-7703 human hepatic carcinoma cell line; assay: In vitro antitumor activity assay (SRB), QGY7703; type: cell-based; settings: QGY7703, 72 h, Table 3
From the text: (§1) HeLa human cervical carcinoma cell line, A-549 human non-small cell lung carcinoma cell line, NCI-H2228 human lung carcinoma cell line, NCI-H460 human lung carcinoma cell line, MDA-MB-231 human breast carcinoma cell line, MCF-7 human breast carcinoma cell line, Bel-7402 human hepatic carcinoma cell line, Hep3B human hepatic carcinoma cell line, QGY-7703 human hepatic carcinoma cell line, MV-4-11 human leukemic cell line, DAUDI human leukemic cell line, Jurkat human leukemic cell line, A498 renal carcinoma cell line, LoVo human colon carcinoma cell line, HCT1116 human colon carcinoma cell line, A431 human skin carcinoma cell line, PANC-1 human pancreatic carcinoma cell line, U87-MG human brain carcinoma cell line, SH-SY5Y human brain carcinoma cell line, RPMI-8226 human bone carcinoma cell line, HT1080 human fibrosarcoma cell line, PC-3 human prostatic carcinoma cell line, AGS human gastric adenocarcinoma cell line, and BGC-823 human gastric adenocarcinoma cell line were purchased from the Cell Bank of the Chinese Academy of Sciences.
(§2) The positive control is bufalin (formulated according to the common method), its purity is 98% or more by HPLC-UV and its structure is identified by NMR. The compounds to be tested and the positive control were diluted with normal saline with a concentration gradient of 10^−4 M, 10^−5 M, 10^−6 M, 10^−7 M and 10^−8 M.
(§3) According to cell growth rate, tumor cells in the log phase of growth were seeded into 96-well culture plates at 100 μL per well, and allowed to attach for 24 hours, followed by addition of a test compound or positive control at 10 μL per well. For each concentration, the test was carried out in triplicate wells. […] Finally, Tris solution was added at 150 μL per well, and the absorbance (A) was measured at a wavelength of 515 nm using a microplate reader. The growth inhibition on tumor cell proliferation was calculated according to the following equation:
(§4) Growth Inhibition (%)=[(Absorbance of negative control−Absorbance of blank)−(Absorbance of sample−Absorbance of blank)]/(Absorbance of negative control−Absorbance of blank)×100% […]

[2] = test system: HCT-116 human-derived tumor cell line; assay: In vitro antitumor activity assay (SRB), HCT-116; type: cell-based; settings: HCT-116, 72 h, Table 3
From the text: as §1, §2, §3, §4

[3] = test system: HT1080 human fibrosarcoma cell line; assay: In vitro antitumor activity assay (SRB), HT1080; type: cell-based; settings: HT1080, 72 h, Table 3
From the text: as §1, §2, §3, §4

[4] = In vivo acute toxicity assay in mouse; settings: for LD50: in vivo, ip
Protocol: Sample Name: bufalin, II1E-01.HCl
35.8 mg of II1E-01.HCl was weighted, added with 1.78 mL of anhydrous ethanol, and dissolved completely under ultrasonication. 16.02 mL of 5% glucose injection was added and agitated homogeneously. The solution was filtered with a 0.2 μm filtration membrane to obtain a stock solution with a concentration of 2 mg/mL, wherein the content of ethanol is 10%. The highest dosage is 20 mg/kg, calculated based on the administration volume of 0.1 mL/10 g body weight of mouse.

[5] = test system: A-549 human non-small cell lung carcinoma cell line; assay: In vitro antitumor activity assay (SRB), A549; type: cell-based
From the text: as §1, §2
According to cell growth rate, tumor cells in the log phase of growth were seeded into 96-well culture plates at 100 μL per well, and allowed to attach for 24 hours, followed by addition of a test compound or positive control at 10 μL per well. For each concentration, the test was carried out in triplicate wells. Solvent control wells with addition of normal saline into cell culture and a blank well containing only cell culture medium but without cells for zeroing were also included. The tumor cells were incubated for 72 hours at 37° C. under 5% CO2, and then the culture medium (RPMI-1640) was removed. The cells were fixed with 10% cool TCA by incubating for 1 h at 4° C., washed with distilled water for 5 times, and dried naturally in the air. A solution of SRB (Sigma) (4 mg/mL) in 1% glacial acetic acid was added at 100 μL per well, and the cells were stained for 15 minutes at room temperature, and the supernatant was discarded. The plates were washed for 5 times with 1% acetic acid, and dried in air. Finally, Tris solution was added at 150 μL per well, and the absorbance (A) was measured at a wavelength of 515 nm using a microplate reader. The growth inhibition on tumor cell proliferation was calculated according to the following equation:
Growth Inhibition (%)=[(Absorbance of negative control−Absorbance of blank)−(Absorbance of sample−Absorbance of blank)]/(Absorbance of negative control−Absorbance of blank)×100%
Drug concentration: 10 μM, 1 μM, 0.1 μM, 10 nM, 1 nM, 0.1 nM.
IC50 was fitted by GraphPad Prism 4.

[6] = test system: AGS human gastric adenocarcinoma cell line; assay: In vitro antitumor activity assay (SRB), AGS; type: cell-based; settings: 72 h, Table 3
From the text: as §1, §2, §3, §4

[7] = test system: NCI-H460 human lung carcinoma cell line; assay: In vitro antitumor activity assay (SRB), NCI-H460; type: cell-based; settings: NCI-H460, 72 h, Table 3
From the text: as §1, §2, §3, §4

[8] = Maximum tolerable dosage (basis of dosage selection); settings: in vivo
Protocol: (§5) After the tumor size reaches about 200 mm^3, the mice bearing the tumor were grouped randomly into 8 groups according to the tumor size, including the groups of solvent control, positive control rapamycin 5 mg/kg, II1E-01.HCl 2 mg/kg, II1E-01.HCl 4 mg/kg, II1E-01.HCl 6 mg/kg, II1B-02.HCl 4 mg/kg, II1D-06.HCl 4 mg/kg, bufalin 1.6 mg/kg, wherein the dosage selection is based on that the maximum tolerable dosage is 1.6 mg/kg for bufalin and 6 mg/kg for II1E-01.HCl. Rapamycin was administered intravenously once a week (QW) and the other groups were administered intraperitoneally once every other day (QOD). The tumor was weighted after 21 days to calculate the inhibition rate. The equation for calculating inhibition rate (IR) is IR=(WC−WT)/WC×100%, wherein, WC represents the tumor weight of the control group, and WT represents the tumor weight of the treating group.

[9] = test system: human non-small cell lung carcinoma A549 xenograft; assay: In vivo therapeutic effect against A549 xenograft in nude mice; settings: for inhibition of growth of human lung carcinoma A549 xenograft, in words: A549 xenograft in nude mice, bufalin at 1.6 mg/kg; for Inhibition Rate (%) / Tumor Weight(g) Mean ± SE: A549 xenograft, after 21 days
Protocol: This experiment is to evaluate the in vivo therapeutic effects of compounds bufalin, II1D-06.HCl, II1E-01.HCl and II1B-02.HCl against human-derived lung carcinoma A549 cell xenograft in nude mice.
Solvent control: 4% DMSO & 2% Tween-80 & 5% PEG-400 solution in normal saline
Compounds to be tested: bufalin, II1B-02.HCl, II1E-01.HCl, II1D-06.HCl
Formulating method: the compound was dissolved with DMSO into a stock solution, which was then diluted into an injection with a final DMSO concentration of 4%.
Positive control: Rapamycin Formulating method: it was formulated into an injection with a final DMSO concentration of 4%.
as §5

[10] = test system: HepG2 human-derived tumor cell line; assay: In vitro antitumor activity assay (SRB), HepG2; type: cell-based; settings: HepG2, 72 h, Table 3
[11] = test system: DAUDI human leukemic cell line; assay: In vitro antitumor activity assay (SRB), Daudi; type: cell-based; settings: 72 h, Table 3
From the text: as §1, §2, §3, §4

With `C[C@]12CC[C@H](O)C[C@H]1CC[C@@H]1[C@@H]2CC[C@]2(C)[C@@H](c3ccc(=O)oc3)CC[C@]12O` [bufalin, reference compound] the IC50 ([1]; Homo sapiens, QGY-7703) was 12.8 ± 0.47 nM, the IC50 ([2]; Homo sapiens) was 9.69 ± 0.64 nM and the IC50 ([3]; Homo sapiens, HT-1080) was 11.3 ± 0.38 nM. The LD50 ([4]; intraperitoneal, female mouse, read-out: LD50 of intraperitoneal administration, female mouse) was ~2.8 mg/kg, the LD50 ([4]; intraperitoneal, male mouse, read-out: LD50 of intraperitoneal administration, male mouse) was ~2.4 mg/kg and the IC50 ([5]; Homo sapiens, A549, 72 h, Table 3, read-out: IC50 (72 h), A549) was 8.74 ± 2.52 nM. It also gave an IC50 ([5]; Homo sapiens, A549, Table 2, read-out: IC50, inhibition of cell proliferation, A549) of 6.53 ± 1.64 nM, an IC50 ([6]; Homo sapiens) of 51.8 ± 1.34 nM and an IC50 ([7]; Homo sapiens) of 6.89 ± 0.87 nM. For the same compound, the maximum tolerable dosage ([8]; mouse) was 1.6 mg/kg, the “inhibition of growth of human lung carcinoma A549 xenograft, in words” value [9] was “did not express strong inhibitory activity” and the “Inhibition Rate (%)” value ([9]; 1.6 mg/kg ip QOD) was 8.99%. The “Tumor Weight(g) Mean ± SE” value ([9]; 1.6 mg/kg ip QOD) was 1.5320 ± 0.0624 g, the IC50 ([10]; Homo sapiens) was 6.02 ± 0.71 nM and the IC50 ([11]; Homo sapiens) was 12.6 ± 0.76 nM.
Compound `C[C@]12CC[C@H](OC(=O)NC3CCNCC3)C[C@H]1CC[C@@H]1[C@@H]2CC[C@]2(C)[C@@H](c3ccc(=O)oc3)CC[C@]12O.Cl` [II1E-01•HCl] has an IC50 [1] of 1.72 ± 0.08 nM, an IC50 [2] of 2.13 ± 0.28 nM and an IC50 [3] of 2.34 ± 0.1 nM. The “LD50 of intraperitoneal administration, female mouse” value ([4]; intraperitoneal, female mouse) was “about 18.21 mg/kg”, the “LD50 of intraperitoneal administration, male mouse” value ([4]; intraperitoneal, male mouse) was “about 14.75 mg/kg” and the “LD50 of intravenous administration, female mouse” value ([4]; intravenous, female mouse) was “about 16.51 mg/kg”. The “LD50 of intravenous administration, male mouse” value ([4]; intravenous, male mouse) was “about 13.60 mg/kg”, the “in vivo acute toxicity in mouse compared with bufalin, in words” value ([4]; mouse) was “lower in vivo acute toxicity in mouse than bufalin” and the IC50 ([5]; A549, 72 h, Table 3, read-out: IC50 (72 h), A549) was 0.4 ± 0.22 nM. For the same compound, the IC50 [6] was 9.35 ± 0.53 nM, the IC50 [7] was 0.67 ± 0.03 nM and the maximum tolerable dosage [8] was 6 mg/kg. The “inhibition of growth of human lung carcinoma A549 xenograft, in words” value [9] was “significantly inhibit the growth”, the “Inhibition Rate (%)” value ([9]; 2 mg/kg ip QOD) was 32.43% and the “Tumor Weight(g) Mean ± SE” value ([9]; 2 mg/kg ip QOD) was 1.1375 ± 0.1044 g. For the same compound, the “Inhibition Rate (%)” value ([9]; 4 mg/kg ip QOD) was 70.57%, the “Tumor Weight(g) Mean ± SE” value ([9]; 4 mg/kg ip QOD) was 0.4953 ± 0.0301 g and the “Inhibition Rate (%)” value ([9]; 6 mg/kg ip QOD) was 87.70%. The “Tumor Weight(g) Mean ± SE” value ([9]; 6 mg/kg ip QOD) was 0.2070 ± 0.0193 g, the IC50 [10] was 0.33 ± 0.02 nM and the IC50 [11] was 2.34 ± 0.22 nM.
